Target: T1, hMAO-A (Homo sapiens, UniProt P21397)
T1 construct: purchased Sigma M7316
T1 sequence (P21397 1-527): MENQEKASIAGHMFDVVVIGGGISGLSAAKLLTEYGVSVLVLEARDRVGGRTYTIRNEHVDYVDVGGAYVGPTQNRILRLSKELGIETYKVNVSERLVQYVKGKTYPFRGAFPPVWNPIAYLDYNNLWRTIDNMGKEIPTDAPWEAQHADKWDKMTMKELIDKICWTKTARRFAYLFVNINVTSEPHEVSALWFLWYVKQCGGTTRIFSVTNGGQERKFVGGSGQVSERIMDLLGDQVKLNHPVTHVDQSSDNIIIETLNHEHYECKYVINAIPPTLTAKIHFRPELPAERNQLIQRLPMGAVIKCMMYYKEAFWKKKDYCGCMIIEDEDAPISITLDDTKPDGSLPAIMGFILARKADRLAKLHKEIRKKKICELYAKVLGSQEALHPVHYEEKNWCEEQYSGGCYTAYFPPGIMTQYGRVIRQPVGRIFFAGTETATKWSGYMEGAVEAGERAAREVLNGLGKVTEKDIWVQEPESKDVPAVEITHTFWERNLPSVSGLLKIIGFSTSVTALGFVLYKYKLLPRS
Assay: MAO-A inhibition assay
Assay type: biochemical
Details: No = no inhibition; for hMAO-A inhibition up to 10 μM: printed in the IC50 hMAO-A column
Protocol: MAO-A (Sigma M7316) and MAO-B (Sigma M7441) inhibition assays were conducted in 96-well micro-plates according to the method described by Zhou et al. [Analytical Biochemistry 253, 169-174, 1997]. […] Reactions were initiated by the addition of a pre-mixed solution of tyramine, horseradish peroxidase and Amplex Red, and were allowed to proceed at 37° C. for 30 min. Enzyme activities were determined by measuring absorbance at 570 nm (SpectralMax Plate reader), absorbance of oxidized Amplex Red generated by this horseradish peroxidase-coupled reaction. Nonspecifically formed products were determined in the presence of 2 and 10 µM clorgyline and deprenyl for MAO-A and MAO-B, respectively. IC50 values were determined by fitting concentration-inhibition data to sigmoidal dose-response curves with two-floating parameters: IC50 and Hill coefficient.

hMAO-A inhibition up to 10 μM | hMAO-A inhibition up to 30 μM (up to 30 μM) | SMILES
No |  | O=c1c(-c2ccc(O)cc2)coc2cc(OC[C@H](O)CNCc3cccc(C(F)(F)F)c3)ccc12 [PT-53, 7-[(2R)-2-hydroxy-3-({[3-(trifluoromethyl)phenyl]methyl}amino)propoxy]-3-(4-hydroxyphenyl)chromen-4-one]
No |  | COC(=O)c1cnc(COc2ccc3c(=O)c(-c4ccc(O)cc4)coc3c2)o1 [PT-47, methyl 2-{[3-(4-hydroxyphenyl)-4-oxochromen-7-yloxy]methyl}-1,3-oxazole-5-carboxylate]
No |  | C[C@@H](NC(=O)COc1ccc2c(=O)c(-c3ccc(O)cc3)coc2c1)c1ccc(F)cc1 [PT-90, N-[(1R)-1-(4-fluorophenyl)ethyl]-2-[3-(4-hydroxyphenyl)-4-oxochromen-7-yloxy]acetamide]
No |  | COC(=O)c1coc(COc2ccc3c(=O)c(-c4ccc(O)cc4)coc3c2)n1 [PT-101, methyl 2-{[3-(4-hydroxyphenyl)-4-oxochromen-7-yloxy]methyl}-1,3-oxazole-4-carboxylate]
No |  | O=c1c(-c2ccc(O)cc2)coc2cc(OCCc3ccccc3)ccc12 [PT-87, 3-(4-hydroxyphenyl)-7-(2-phenylethoxy)chromen-4-one]
No |  | Cc1nc(-c2ccc(C(F)(F)F)cc2)sc1COc1ccc2c(=O)c(-c3ccc(NS(C)(=O)=O)cc3)coc2c1 [PT-66, 3-{4-[(methylsulfonyl)amino]phenyl}-7-({4-methyl-2-[4-(trifluoromethyl)phenyl](1,3-thiazol-5-yl)}methoxy)chromen-4-one]
36% |  | C[C@@H](NCC(=O)COc1ccc2c(=O)c(-c3ccc(O)cc3)coc2c1)c1ccc(F)cc1 [PT-56, 7-(3-{[(1R)-1-(4-fluorophenyl)ethyl]amino}-2-oxopropoxy)-3-(4-hydroxyphenyl)chromen-4-one]
No |  | O=c1c(-c2ccc(O)cc2)coc2cc(OC[C@H](O)CNCc3cc(F)cc(F)c3)ccc12 [PT-55, 7-((2R)-3-{[(3,5-difluorophenyl)methyl]amino}-2-hydroxypropoxy)-3-(4-hydroxyphenyl)chromen-4-one]
No |  | N#Cc1ccc(-c2coc3cc(OCc4cc(-c5cccc(C(F)(F)F)c5)no4)ccc3c2=O)cc1 [PT-69, 4-[4-oxo-7-({3-[3-(trifluoromethyl)phenyl]isoxazol-5-yl}methoxy)chromen-3-yl]benzenecarbonitrile]
No |  | COc1ccc(-c2coc3cc(OCc4sc(-c5ccc(C(F)(F)F)cc5)nc4C)ccc3c2=O)cn1 [PT-67, 3-(6-methoxy(3-pyridyl))-7-({4-methyl-2-[4-(trifluoromethyl)phenyl](1,3-thiazol-5-yl)}methoxy)chromen-4-one]
No |  | CS(=O)(=O)Nc1ccc(-c2coc3cc(OCc4noc(-c5cc(F)cc(C(F)(F)F)c5)n4)ccc3c2=O)cc1 [PT-70, 7-({5-[3-fluoro-5-(trifluoromethyl)phenyl](1,2,4-oxadiazol-3-yl)}methoxy)-3-{4-[(methylsulfonyl)amino]phenyl}chromen-4-one]
 | No | COC(=O)c1cccc(COc2ccc3c(=O)c(-c4ccc(O)cc4)coc3c2)c1 [PT-33, methyl 3-{[3-(4-hydroxyphenyl)-4-oxochromen-7-yloxy]methyl}benzoate]
34% |  | O=c1c(-c2ccc(O)cc2)coc2cc(OCCOc3ccc(Cl)cc3)ccc12 [PT-89, 7-[2-(4-chlorophenoxy)ethoxy]-3-(4-hydroxyphenyl)chromen-4-one]
No |  | O=c1c(-c2ccc(O)cc2)coc2cc(OCc3ccccn3)ccc12 [PT-91, 3-(4-hydroxyphenyl)-7-(2-pyridylmethoxy)chromen-4-one]
No |  | Cc1nc(-c2ccc(C(F)(F)F)cc2)sc1COc1ccc2c(=O)c(-c3ccc(C#N)cc3)coc2c1 [PT-65, 4-[7-({4-methyl-2-[4-(trifluoromethyl)phenyl](1,3-thiazol-5-yl)}methoxy)-4-oxochromen-3-yl]benzenecarbonitrile]
No |  | O=c1c(-c2ccc(O)cc2)coc2cc(OCNCc3cccc(C(F)(F)F)c3)ccc12 [PT-54, 3-(4-hydroxyphenyl)-7-[({[3-(trifluoromethyl)phenyl]methyl}amino)methoxy]chromen-4-one]
No |  | O=c1c(-c2ccc(O)cc2)coc2cc(OCc3nnc(-c4ccccc4Cl)s3)ccc12 [PT-64, 7-{[5-(2-chlorophenyl)(1,3,4-thiadiazol-2-yl)]methoxy}-3-(4-hydroxyphenyl)chromen-4-one]
No |  | O=c1c(-c2ccc(O)cc2)coc2cc(OCc3cnc(-c4ccccc4)o3)ccc12 [PT-61, 3-(4-hydroxyphenyl)-7-[(2-phenyl(1,3-oxazol-5-yl))methoxy]chromen-4-one]
No |  | CS(=O)(=O)Nc1ccc(-c2c(O)oc3cc(OCc4cccc(C(=O)O)c4)ccc3c2=O)cc1 [PT-111, 3-[(2-hydroxy-3-{4-[(methylsulfonyl)amino]phenyl}-4-oxochromen-7-yloxy)methyl]-benzoic acid]
No |  | O=c1c(-c2ccc(O)cc2)coc2cc(OCc3cc(-c4cccc(C(F)(F)F)c4)on3)ccc12 [PT-45, 3-(4-hydroxyphenyl)-7-({5-[3-(trifluoromethyl)phenyl]isoxazol-3-yl}methoxy)chromen-4-one]
36% |  | C[C@H](NC(=O)COc1ccc2c(=O)c(-c3ccc(O)cc3)coc2c1)c1ccc(F)cc1 [PT-103, N-[(1S)-1-(4-fluorophenyl)ethyl]-2-[3-(4-hydroxyphenyl)-4-oxochromen-7-yloxy]acetamide]
No |  | O=c1c(-c2ccc(O)cc2)coc2cc(OCc3ccncc3)ccc12 [PT-82, 3-(4-hydxoxyphenyl)-7-(4-pyridylmethoxy)chromen-4-one]
No |  | CC(=O)c1cccc(-c2coc3cc(OCc4noc(-c5cc(F)cc(C(F)(F)F)c5)n4)ccc3c2=O)c1 [PT-73, 3-(3-acetylphenyl)-7-({5-[3-fluoro-5-(trifluoromethyl)phenyl](1,2,4-oxadiazol-3-yl)}methoxy)chromen-4-one]
No |  | O=C(O)c1cnc(COc2ccc3c(=O)c(-c4ccc(O)cc4)coc3c2)o1 [PT-49, 2-{[3-(4-hydroxyphenyl)-4-oxochromen-7-yloxy]methyl}-1,3-oxazole-5-carboxylic acid]
26% |  | O=c1c(-c2ccc(O)cc2)coc2cc(OC[C@H](O)Cc3ccccc3)ccc12 [PT-109, 7-((2R)-2-hydroxy-3-phenylpropoxy)-3-(4-hydroxyphenyl)chromen-4-one]
No |  | O=c1c(-c2ccc(O)cc2)coc2cc(OCc3nnc(-c4ccc(F)cc4)o3)ccc12 [PT-81, 7-{[5-(4-fluorophenyl)(1,3,4-oxadiazol-2-yl)]methoxy}-3-(4-hydroxyphenyl)chromen-4-one]
No |  | O=c1c(-c2ccc(O)cc2)coc2cc(OCc3nnc(-c4cccc(C(F)(F)F)c4)o3)ccc12 [PT-60, 3-(4-hydroxyphenyl)-7-({5-[3-(trifluoromethyl)phenyl](1,3,4-oxadiazol-2-yl)}methoxy)chromen-4-one]

— US8158810B2 (Gilead Sciences, Inc., priority 2006, dated 2012)
